Read-outs that look alike come from different tables or passages of the source.
Experiments:
male CD rats = assay: Serum hormone levels during mating trial; type: in vivo, rat; settings: 150 mg/kg/day; weeks 0, 1, 4 and 7; ANOVA
From the text: Rats were weighed on day 0 (first day of dosing) and weekly thereafter. Dosages were adjusted based on the most recent body weight. Males were cohabited with untreated females (one male per two females) weekly at weeks 1 through 9 [38, 39]. Females were necropsied seven days after separation from males to determine the numbers of implantation sites. Individual male rats were bled from the tail vein at weeks 0, 1, 4, and 7 and serum was harvested by centrifugation. At week 11, the male rats were weighed, anesthetized, and exsanguinated. Sera were analyzed for inhibin B by ELISA (enzyme-linked immunosorbent assay), and rat follicle stimulating hormone (rFSH) and testosterone by radioimmunoassay. Testes, epididymides, ventral prostates, and seminal vesicles were excised and weighed. The left testis was homogenized, and spermatid head counts obtained.
Statistical analysis using the Student’s t-test was performed on body weights, paired testes weights, ventral prostrate weights, seminal vesicle weights, paired epididymal weights, spermatid head counts, percent motile and normal epididymal sperm. We used analysis of variance (ANOVA) for serum inhibin B, rFSH, and testosterone, since these measurements were repeated throughout the study period. The effect of NB-DNJ at 15 mg/kg/day dose in the rat model was studied following the same protocol as that for NB-DGJ.

CGT = settings: cited from earlier work
[1] = Pharmacokinetic study, single oral bolus, plasma LC/MS/MS; type: in vivo, rat; settings: male CD rats, single oral 150 mg/kg; for Cmax: male, CD, plasma, po, 150 mg/kg
Description: Four male CD rats (225–235 g) were purchased from Harlan (Indianapolis, IN, USA) with in-dwelling jugular cannulas and allowed to acclimate for 72 h in climate-regulated holding rooms in the University of Minnesota’s AAALAC-certified animal facilities. Standard rat chow and water were provided ad libitum throughout the study. NB-DGJ was formulated as described above to 33.75 mg/mL for in vivo administration. Rats were dosed orally by using a 15 G × 3” disposable gavage needle with a maximum volume of 5 mL/kg body weight. At various time points (0.083, 0.25, 0.5, 1, 2, 4, 8, 12, 24 and 48 h) following dosing, approximately 0.1 mL of blood was collected from each rat into BD Microtainer® with Lithium Heparin (Becton-Dickinson). Plasma was then isolated by allowing the samples to sit at room temperature for 30 min followed by microcentrifugation at 15,000× g for 5 min. Plasma samples were then stored at −70 °C until processing and analysis.
Frozen plasma samples were thawed on ice and processed by adding 2 volumes of 100% acetonitrile (containing 750 ng/mL miglitol (N-hydroxyethyl-1-deoxynojirimycin) as an internal standard) and vortexed. The samples were then incubated on ice for 1 h and then microcentrifuged at 15,000× g for 5 min. The cleared supernatants were then transferred to 12 × 32 mm glass vials with inserts (Thermo Scientific™ National™ Inserts for Target™ LoVial™ Wide-Opening Vials).
Processed samples were analyzed by LC/MS/MS using a previously published method. A standard curve consisting of normal rat plasma containing varying concentrations (1500, 500, 166.7, 55.6, 18.5, 6.2, 2.1, 0.7 and 0.22 ng/mL) of NB-DGJ was constructed and processed as described above. The analytical system was composed of a Quattro Ultima triple quadrupole MS/MS coupled with a Waters Acquity UPLC (Ultra Performance Liquid Chromatography). UPLC isocratic separation of analytes was performed using a Waters Atlantis Hilic 3 µm, 150 × 2.1 mm analytical column (Waters Corporation, Milford, MA, USA) maintained at 30 °C. The eluent was a mixture of acetonitrile/water/buffer (75/10/15, v/v/v) delivered at 0.25 mL/min. The buffer consisted of 100 mM ammonium acetate, pH 5. For the quantification of NB-DGJ and miglitol (internal standard), the transitions m/z 220 (Q1) → m/z 158 (Q3) and m/z 208 (Q1) → m/z 146 (Q3) were monitored, respectively. Data reduction was performed with QuanLynx software. PK analysis was performed by WinNonLin using a non-compartmental model.

In the case of CCCCN1C[C@H](O)[C@@H](O)[C@@H](O)[C@H]1CO [NB-DGJ, N-butyldeoxygalactonojirimycin], the “Serum inhibin B versus control” value (male CD rats) is reported as “No significant differences”, the “Serum rFSH versus control” value (male CD rats) is reported as “No significant differences” and the “Serum testosterone versus control” value (male CD rats) is reported as “No significant differences”. For the same compound, the IC50 (CGT; ref 20) was 41.4 µM, the IC50 (CGT; ref 36) was 10 µM and the t½_Lambda_z ([1]; n = 4, plasma) was 6.5 h. The Cmax ([1]; rat, converted from ng/mL, read-out: Cmax (plasma level) in molar units) was 50 µM, the Cmax ([1]; rat, n = 4, plasma, read-out: Cmax) was 11000 ng/mL and the tmax ([1]; rat, n = 4, plasma) was 1.3 h. It also gave an AUC(0-inf) ([1]; rat, n = 4, plasma, non-compartmental, read-out: AUCINF_Obs) of 55600 ng·h/mL.

Reference: paper PMC6982022 (International Journal of Molecular Sciences, 2019)
